In ChEMBL document CHEMBL4622981, “Exploration of TRPM8 Binding Sites by β-Carboline-Based Antagonists and Their In Vitro Characterization and In Vivo Analgesic Activities” (J Med Chem, 2020):
Activity calls are given as the source filed them. The rule behind the calls is not given here.

Experiments:
[1] = Stability in human liver microsomes at 2.5 mM measured up to 60 mins in absence of phase 1 cofactor NADPH by HPLC analysis; assay type: ADME, Microsome; conditions: 1 h, 2500 µM
[2] = Stability in human liver microsomes at 2.5 mM measured up to 60 mins in absence of phase 2 cofactor UDP-GlcUA/NADPH by HPLC analysis; assay type: ADME, Microsome; conditions: 1 h, 2500 µM
[3] = Stability in human liver microsomes assessed as metabolic turnover at 2.5 mM preincubated for 5 mins followed by phase 1 cofactor NADPH addition measured for 60 mins by HPLC analysis; assay type: ADME, Microsome; conditions: read-out: Drug metabolism
Rattus norvegicus [4] = experiment: Inhibition of icilin-induced wet-dog shake in Wistar rat model at 10 mg/kg, ip treated 30 mins prior to icilin challenge measured for 30 mins; assay type: functional, organism-based
Rattus norvegicus [5] = experiment: Inhibition of icilin-induced wet-dog shake in Wistar rat model at 10 mg/kg, ip treated 2 hrs prior to icilin challenge measured for 30 mins; assay type: functional, organism-based

| Structure (SMILES) | Stability [1] | Stability [2] | metabolised at 1 h [3] | inhibition (Rattus norvegicus [4]) | inhibition (Rattus norvegicus [5]) |
| --- | --- | --- | --- | --- | --- |
| O=C1[C@@H]2Cc3c([nH]c4ccccc34)[C@@H](c3ccc(Cl)cc3)N2C(=O)N1Cc1ccc(F)cc1 | Stable | Stable | 26.5% | – | – |
| COC(=O)[C@@H]1Cc2c([nH]c3ccccc23)[C@@H](c2ccccc2)N1Cc1ccccc1 | Stable | Stable | 1.1 to 72% | – | – |
| O=C1N[C@H](Cc2ccccc2)C(=O)N2Cc3[nH]c4ccccc4c3C[C@@H]12 | Stable | Stable | 1.1 to 72% | – | – |
| COC(=O)CC[C@H]1N[C@H](C(=O)NCc2ccc(F)cc2)Cc2c1[nH]c1ccccc21 | – | – | 1.1 to 72% | – | – |
| COC(=O)C(Cc1c[nH]c2ccccc12)N(Cc1ccccc1)Cc1ccccc1 (centres undefined) | Stable | Stable | – | Active | inactive |
